Measured values reported in PubChem BioAssay AID1241 (SRMLSC, 2008).

Test: NF-kB promoter reporter activators, neuronal cells, dose response, cell-based, SH-SY5Y, luciferase (AID 1241)
Settings: fold induction

Row | Compound | EC50 [nM]
1 | CC(C)c1ccc(/C=C/c2ccc(=O)n(C)n2)cc1 | 8700
2 | CC(C)c1ccc(-n2cnn(-c3ncccc3[N+](=O)[O-])c2=O)cc1 | 1590
3 | O=C(Nc1ccn(Cc2ccccc2)n1)c1cccc(F)c1 | 15100
4 | Cc1ccc2nc(-c3ccc(NS(=O)(=O)c4ccc(F)c(F)c4)cc3)sc2c1 | 3620
5 | O=[N+]([O-])c1cc(O)c2ncccc2c1 | 7940
6 | CNC(=O)Oc1cccc(-c2cn3cc(Cl)ccc3n2)c1 | 1260
7 | CCOC(=O)c1ccc(Nc2ncccc2[N+](=O)[O-])cc1 | 2820
8 | Cc1cc(C)c[n+](-c2nc3ccccc3nc2C(=C=[N-])C#N)c1 | 28000
9 | Cc1ccc(Cc2cnc(NC(=O)c3ccco3)s2)cc1 | 1340
10 | O=C(Nc1ccc2c(c1)OCO2)c1ccc(Cl)s1 | 1800
11 | O=C(Nc1ccccn1)c1sc2cccc(F)c2c1Cl | 1760
12 | COc1cc(OC)cc(-c2nc3cc(C)ccc3o2)c1 | 29300
13 | Cc1ccsc1/C=C1\CCC(C2CCCC2)C1=O (stereo unspecified) | 5840
14 | Cc1ccc(NC(=O)N2CCc3ccccc32)cc1C | 361
15 | COc1ccc2nc(Nc3ccccc3OC)sc2c1 | 2240
16 | CN(C)S(=O)(=O)Oc1cccc(C(=O)Nc2ccc(Cl)cc2)c1 | 8780
17 | CCCCNc1ncnc2c1cnn2-c1ccc(Cl)cc1 | 7760
18 | O=C(c1ccc(Cl)cc1)c1coc2ccc(O)cc12 | 3200
19 | COc1ccc(C(=O)/C=C/c2cn(CN3CCN(C)CC3)c3ccccc23)cc1 | 1020
20 | Cc1ccc(OCCSc2ncccn2)c(C)c1 | 5420
21 | COc1cc(/C=N/O)ccc1OCc1ccccc1Cl | 12100
22 | CCC(=O)NC(=Nc1nc2ccccc2s1)NC(=O)CC | 4450
23 | Oc1ccc(F)cc1-c1cc(-c2ccc3c(c2)OCCO3)n[nH]1 | 1010

Row | Compound | EC50 [nM]
24 | CCCCc1ccc(NC(=O)c2cnccn2)cc1 | 250
25 | Cc1cccnc1Nc1nc(-c2ccccn2)cs1 | 160
26 | O=C(Nc1nccs1)c1ccc(-c2ccc(Cl)cc2)o1 | 27600
27 | Cn1cc([N+](=O)[O-])c(C(=O)Nc2ccc(-c3nc4ccccc4[nH]3)cc2)n1 | 1410
28 | CCCOc1ccc(C(=O)NCCc2ccccc2)cc1 | 648
29 | COc1ccc(-c2cn3ccsc3n2)cc1 | 12500
30 | CC(=O)Nc1ccc2oc(-c3cc(F)c(F)cc3Cl)nc2c1 | 817
31 | c1ccc2c(c1)nnn1c3ccccc3nc21 | 346
32 | O=C(COc1ccc(CO)cc1Cl)Nc1ccc(F)cc1 | 1600
33 | O=C(Nc1nc2c(s1)CCCC2)c1ccc(Br)s1 | 1070
34 | CCOC(=O)c1c(N)sc(C(=O)Nc2ccc3c(c2)OCO3)c1C | 871
35 | Cc1ccc(NC(=O)c2scc3c2CCCC3)cc1 | 714
36 | CN(C)C(=S)Nc1nc2ccccc2s1 | 15100
37 | CCN(CC)c1ccc(NC(=O)c2ccco2)cc1 | 2500
38 | Fc1ccc(-c2cnn3c(-c4cccs4)ccnc23)cc1 | 532
39 | Cc1sc(NC(=O)c2ccco2)nc1-c1ccccc1 | 2770
40 | CC(=Nc1ccc(O)cc1)c1sc2ccccc2c1O | 2160
41 | Cc1ccsc1C(=O)OCc1csc(-c2ccccc2)n1 | 1540
42 | Nc1nn(-c2cccc(F)n2)cc1-c1ccc(Cl)cc1 | 675
43 | NS(=O)(=O)c1cc(C(=O)OCC(=O)c2ccc3c(c2)OCCO3)ccc1Cl | 3470
44 | OCc1cn(-c2ccccc2)nc1-c1cc2ccccc2o1 | 6680
45 | O=C(Nc1ccc(OC(F)F)c(Cl)c1)c1ccccn1 | 6280
46 | COc1ccc(NC(=O)c2csc3c2CCCC3)cc1 | 16700

Row | Compound | EC50 [nM]
47 | COc1ccc(-c2ccc3ccccc3n2)cc1 | 651
48 | CSc1ccc(/C=N/Nc2ccc(Cl)c(C(=O)O)c2)cc1 | 5910
49 | CCCCn1cnc2sc(-c3ccccc3)cc2c1=O | 12000
50 | O=C(O)c1ccc(/C=N/Nc2ccc(F)cc2F)cc1 | 1230
51 | O=C(N/N=C/C(Br)=C\c1ccccc1)c1n[nH]c2c1CCC2 | 1090
52 | Oc1ccc(/C=N/Nc2cccc3cccnc23)c(O)c1 | 2950
53 | C=CCNc1nc(-c2ccc(Cl)cc2)cs1 | 11100
54 | NC(=O)c1ccccc1N/C=C/C(=O)c1cccs1 | 4950
55 | COc1ccccc1N1CCN(Cc2ccc(O)c3ncccc23)CC1 | 1160
56 | Cc1ccccc1/C=C1\CCCc2ccccc2C1=O | 24900
57 | COc1ccc(NC(=O)c2nc3ccccc3s2)cc1 | 461
58 | CCc1ccc2oc(-c3ccc(N)cc3)nc2c1 | 342
59 | Cc1ccc(-n2c(C)cc(C(=O)CSc3nnnn3C)c2C)cc1 | 1320
60 | CSC(=S)N/N=C(\C)c1ccccc1 | 1170
61 | O=C(Nc1ccccc1)Nc1nc2ccccc2s1 | 27200
62 | O=C(/C=C/Nc1ccccc1F)c1cccs1 | 413
63 | CC(=Nc1ccccc1)c1sc2ccccc2c1O | 6490
64 | CC(=O)Oc1ccc(Oc2ccc(-c3noc(C)n3)cc2)cc1 | 2840
65 | COc1ccccc1/C=C/C(=O)Nc1ccc2c(c1)CCC2 | 5640
66 | Cc1ccc(C)c(NC(=S)c2ccccn2)c1 | 6690
67 | O=C(OCC(=O)c1c[nH]c2ccccc12)c1cccc(O)c1 | 14600
68 | O=C(/C=C/Nc1cccc(O)c1)c1ccccc1 | 2100
69 | CCNC(=O)O/N=C(\C)c1sc(-c2ccc(Cl)cc2)nc1C | 1630

Row | Compound | EC50 [nM]
70 | Clc1ccc2nc(N3CCCCC3)[nH]c2c1 | 7790
71 | Oc1ccc(-c2cn3cc(C(F)(F)F)ccc3n2)cc1 | 1190
72 | N#C/C(=N\Nc1cccc(F)c1)C(=N)N1CCCCCC1 | 1640
73 | Fc1ccccc1-c1nc(-c2ccccc2)no1 | 4000
74 | N/C(=N\N=C\c1cccc(O)c1)c1nonc1N | 3310
75 | Cc1ccc(-n2cc3ccc([N+](=O)[O-])cc3n2)cc1 | 1290
76 | Cc1nn(C)cc1/C=C/C(=O)c1ccccc1 | 2750
77 | O=C(Oc1c(CN2CCOCC2)cc(Cl)c2cccnc12)c1ccc(F)cc1 | 13100
78 | O=C(Nc1ccc2c(c1)CCC2)c1ccc(F)cc1 | 217
79 | O=C(Nc1nc2ccccc2s1)NC1CCCCC1 | 2420
80 | CCc1ccc(C2=NN(S(C)(=O)=O)C(c3cccs3)C2)cc1 (stereo unspecified) | 2850
81 | Cc1ccc2nc(NC(=O)c3ccc(Cl)s3)sc2c1 | 1060
82 | Cc1ccc(C(=O)c2sc3nsc(C)c3c2N)cc1 | 2000
83 | O=C(Nc1ccc2c(c1)OCCO2)NC1CCCCC1 | 18200
84 | Nc1cccc(-c2cn3cc(C(F)(F)F)cc(Cl)c3n2)c1 | 682
85 | CCCOc1ccc(C(=O)Nc2ccc(Cl)cn2)cc1 | 1090
86 | CN(C)c1ccc(/C=N/NC(=O)c2ccco2)cc1 | 18200
87 | Cc1ccccc1-c1cc(-c2ccccc2O)on1 | 9680
88 | CCOC(=O)c1sc(=NC(=O)c2cccs2)n(C)c1C | 778
89 | CCc1ccc(-c2cc(N)n(-c3ccccc3)n2)cc1 | 16400
90 | CC1=NC(=O)C(N=Nc2cccc(C(=O)O)c2)N1c1ccccc1 (stereo unspecified) | 781
91 | Cc1ccc2nc(/C=C/c3cccc(F)c3)ccc2c1 | 3070
92 | COc1c(C)cccc1C(=O)Nc1ccc(N2CCOCC2)c(Cl)c1 | 13400

Row | Compound | EC50 [nM]
93 | Cc1ccc(NC(=O)c2ccc3ccccc3n2)nc1 | 4110
94 | Cc1ccc(Nc2nc3ccccc3s2)c(C)c1 | 874
95 | Nc1ccc(O)cc1C(=O)OCC(=O)c1ccc(C2CCCCC2)cc1 | 3910
96 | O=C(N/N=C/C(Br)=C/c1ccccc1)c1n[nH]c2c1CCC2 | 659
97 | Oc1ccc(-c2csc(Nc3ncccn3)n2)c(O)c1 | 945
98 | Nc1ccccc1C(=O)OCCOc1ccccc1 | 910
99 | O=C(NCCC1=CCCCC1)Nc1ccc2nsnc2c1 | 4770
100 | Cc1ccc(OCc2nc(-c3cccs3)no2)c([N+](=O)[O-])c1 | 769
101 | Cc1ccc2nc(-c3ccc(NC(=O)COC(=O)c4ccc([N+](=O)[O-])o4)cc3)sc2c1 | 437
102 | S=C(Nc1ccccn1)c1ccccn1 | 2030
103 | COc1cccc(/C=C/C(=O)c2ccc[nH]2)c1 | 14900
104 | Cc1cccc(-c2cc3c(nn2)-c2ccccc2C3=O)c1 | 2600
105 | Fc1ccccc1Nc1nc2c(s1)CCc1ccccc1-2 | 3360
106 | COc1ccc(CN=C2Nc3ccccc3CS2)cc1 | 13300
107 | COc1ccc2[nH]c3c(c2c1)CCn1c-3nc2ccccc2c1=O | 185
108 | O=C(Nc1cccc(O)c1)c1noc2c1CCc1ccccc1-2 | 426
109 | CC(C)c1ccc(OCc2nc(-c3ccccn3)no2)c(Br)c1 | 1030
110 | Nc1c(C(=O)Nc2ccc(Cl)cc2)oc2ccccc12 | 11000
111 | CCOc1ccc2nc(N3CCCCCC3)sc2c1 | 3690
112 | COc1ccc(Nc2nc(-c3cccs3)cs2)c(OC)c1 | 2330
113 | N#C/C(=N\Nc1ccc(F)cc1)C(=N)N1CCCCC1 | 2970
114 | Cc1ccc(-c2noc(-c3ccccc3Br)n2)cc1 | 1830
115 | COc1ccc(-n2nc3cc(C)c(N)c(Br)c3n2)cc1 | 1440

Row | Compound | EC50 [nM]
116 | Cn1ccc(C(=O)Nc2ccc(Br)cc2Br)n1 | 29500
117 | O=C(CC(Nc1ccc(F)cc1)C(=O)O)c1ccccc1 (stereo unspecified) | 1500
118 | Nc1cccc(-c2nc3ccccc3s2)c1 | 1410
119 | Cc1ccc(/C=N/Nc2cccc3cccnc23)c(O)c1 | 9470
120 | CCS/C(N)=N/N=C/c1cc(C)ccc1O | 3310
121 | Oc1c(C2=NCCNC(C(F)(F)F)=C2)ccc2ccccc12 | 17700
122 | N/C(=N\OC(=O)c1cccc(Cl)c1)c1ccccn1 | 1950
123 | CCCCc1ccc(-c2ccc(Br)cc2O)nc1 | 3360
124 | COc1cc(/C=N/O)ccc1OCc1ccc(Cl)cc1 | 882
125 | Cc1ccc(/C=C(\C#N)c2nc3ccccc3[nH]2)s1 | 637
126 | CC(=O)Nc1nc2ccc(-c3nc4ccccc4o3)cc2s1 | 1460
127 | O=C(NCc1ccco1)c1ccc([N+](=O)[O-])o1 | 6890
128 | Cc1ccc(/C=N/Nc2cccc(C(=O)O)c2)s1 | 2120
129 | COc1ccc2c(c1)OC/C(=C/c1cccs1)C2=O | 5520
130 | COc1cccc(CNc2ccc(Br)cn2)c1O | 3900
131 | Cc1ccc(Nc2nc(C3CC3)cs2)cc1 | 1820
132 | O=S(=O)(c1ccc(Cl)cc1)c1snnc1-c1ccccc1 | 2330
133 | CCN(CC)c1ccc(N=Nc2nn(C)c(C)c2[N+](=O)[O-])cc1 | 8190
134 | COC(=O)CSc1nc2cc3c(cc2cc1C#N)OCO3 | 997
135 | Cc1ccnc(NC(=O)CCCOc2cc(=O)n(C)c3ccccc23)c1 | 10500
136 | COc1ccc(/C=C2\SC(=O)N(CCNC(=O)C3CC4C=CC3C4)C2=O)cc1 (stereo unspecified) | 4140
